Laboratory results from publication PMC6125551 (Antimicrobial Agents and Chemotherapy, 2018).
Like-named read-outs stand apart in the source and are kept apart here.

Key:
clinical [1] = details: male, human, 500 mg
Description: (§1) Study 1 (protocol 001) was a phase 1, randomized, double-blind, placebo-controlled, rising single- and multiple-dose study conducted at a single center that investigated relebactam in healthy adult men. The study was conducted in four parts, and all doses were administered intravenously (i.v.) in a total volume of 100 ml over 30 min.
(§2) In each panel, in all periods (except period 4), subjects were randomized to receive a placebo (n = 2) or relebactam (n = 6).
(§3) The plasma was mixed with a stabilizer containing morpholineethanesulfonic acid buffer and ethylene glycol before storage at −70°C. […] The assay utilized hydrophilic interaction chromatography (HILIC) and tandem mass spectrometry. Stable isotope-labeled internal standards were used for all three analytes.
(§4) Pharmacokinetic parameters were determined from plasma and urine concentration-time data by a noncompartmental approach using Phoenix WinNonlin, version 6.3 (Certara LP, Princeton, NJ, USA). The CEOI (concentration at end of infusion) and Tmax (time to maximum concentration) were generated from each analyte's plasma concentration-time data. All AUC values were calculated using the linear trapezoidal method for ascending concentrations and the log trapezoidal method for descending concentrations (calculation method options in WinNonlin). AUC0–∞ was calculated as the sum of AUC0–last and Cest, last/λz, where AUC0–last is the AUC from time 0 to the time of the last quantifiable concentration, Cest, last is the predicted concentration at the time of the last quantifiable concentration, and λz is the apparent terminal rate constant. […] At least three consecutive data points (excluding Cmax) in terminal phase were used for λz calculations. Clearance (CL) was calculated as dose/AUC0–∞.

[2] = Urine pharmacokinetics, single dose, study 2; details: both, human, CLR, range
Description: (§5) Study 2 (protocol 002) was a phase 1, randomized, double-blind, placebo-controlled study with three panels of healthy participants that included elderly men (panel L [n = 8]), elderly women (panel M [n = 8]), and adult women (panel N [n = 8]).
as §3
(§6) The amount of unchanged drug excreted in urine during a collection interval (Ae) was calculated by a cumulative sum of urine (concentration of unchanged drug × volume) per collection interval. The fraction of the dose excreted in urine (fe) was calculated as Ae/dose.

[3] = Urine pharmacokinetics, single dose, study 1 part I, healthy men; details: imipenem-cilastatin 500 mg alone, adult men from study 1
Description: as §2, §3, §6

[4] = for AUC(0-t) / half-life: male, human, in vivo
Description: (§7) Each panel was dosed sequentially, allowing for assessment of safety and tolerability before dose escalation.
as §3, §4

clinical [5] = details: female, human, plasma, intravenous
Description: as §5, §3, §4

clinical [6] = details: male, human, in vivo
Description: as §2, §3, §6

clinical [7] = details: male, human, in vivo; remark: listed apart in the source
Description: as §7, §3, §4

[8] = Plasma pharmacokinetics, single dose as 30-min i.v. infusion, study 1 part I, healthy men; details: for half-life / AUC(0-inf) / concentration at 30 min / clearance / Vd: male, human, plasma; for AUC(0-inf): AUC0–∞; for concentration at 30 min: CEOI; for clearance: CL; for Vd: Vz;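 for all read-outs here: plasma analyte levels quantified by HILIC with tandem mass spectrometry, parameters derived noncompartmentally in WinNonlin, AUC by linear-up log-down trapezoidal rule, clearance taken as dose over AUC0–∞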
Description: as §1, §2, §3, §4

[9] = Safety and tolerability, single dose, study 1 part I; assay type: in vivo, human
Description: The safety analysis comprised the all-subjects-as-treated (ASaT) population, which included those participants who received ≥1 dose of investigational drug.

[10] = male, human, in vivo, 250 mg
Description: as §2, §3, §6

[11] = male, human, in vivo
Description: as §7, §3, §6

[12] = assumed for the calculation, no reference given; cited from earlier work
clinical [13] = details: male, human, in vivo, unbound CLR
Description: as §7, §3, §6

[14] = Plasma pharmacokinetics, single dose, study 2 (elderly men, elderly women, adult women)
Description: as §5, §3, §4

[15] = urine and plasma, intravenous, adult participants (men and women)
[16] = urine and plasma, intravenous, elderly participants (men and women)
[17] = intravenous, 25 mg, relebactam 25 mg alone, single dose
[18] = intravenous, 50 mg, relebactam 50 mg alone, single dose
[19] = intravenous, 250 mg, relebactam 250 mg alone, single dose
[20] = intravenous, 500 mg, relebactam 500 mg alone, single dose
[21] = intravenous, 1000 mg, relebactam 1,000 mg alone, single dose
[22] = intravenous, 1150 mg, relebactam 1,150 mg alone, single dose
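Throughout, for CEOI: plasma levels quantified by HILIC with tandem mass spectrometry and isotope-labeled internal standards, parameters derived noncompartmentally in WinNonlin, clearance equal to dose divided by AUC0-∞.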

`CC1(C)C[C@@H]1C(=O)N/C(=C\CCCCSC[C@H](N)C(=O)O)C(=O)O` [Cilastatin] gave an AUC(0-inf) (clinical [1]; in vivo) of 114 ± 13.5 µM·h, a Vd (clinical [1]; in vivo) of 16.5 ± 2.11 L and a concentration at 30 min (clinical [1]; in vivo) of 101 ± 16.6 µM. It also gave a half-life (clinical [1]; in vivo) of 0.92 ± 0.051 h, a CL renal ([2]; in vivo, adult participants (men and women)) of 157 to 168 mL/min and a CL renal ([2]; in vivo, elderly participants (men and women)) of 112 to 126 mL/min. For the same compound, the “fe, least squares mean (95% CI)” value [3] was 88.5 (82.1, 94.9) %, the CL renal ([3]; male, human, in vivo, 500 mg, CLR, mean (95% CI)) was 168 mL/min and the CEOI ([4]; 0 mg relebactam + 500 mg imipenem/cilastatin, panel I, day 1, N 1) was 144 µM. It also gave a CEOI ([4]; 0 mg relebactam + 500 mg imipenem/cilastatin, panel J, day 1) of 107 ± 6.53 µM, a CEOI ([4]; 0 mg relebactam + 500 mg imipenem/cilastatin, panel K, day 1) of 104 ± 10.4 µM and a CEOI ([4]; 50 mg relebactam + 500 mg imipenem/cilastatin, panel C, day 1) of 106 ± 12.0 µM. For the same compound, the CEOI ([4]; 250 mg relebactam + 500 mg imipenem/cilastatin, panel F, day 1) was 103 ± 20.0 µM, the CEOI ([4]; 500 mg relebactam + 500 mg imipenem/cilastatin, panel H, day 1) was 115 ± 21.9 µM and the CEOI ([4]; 500 mg relebactam + 500 mg imipenem/cilastatin, panel J, day 1) was 98.5 ± 14.6 µM. It also gave an AUC(0-t) ([4]; AUC0-6, 0 mg relebactam + 500 mg imipenem/cilastatin, panel I, day 1, N 1) of 167 µM·h, an AUC(0-t) ([4]; AUC0-6, 0 mg relebactam + 500 mg imipenem/cilastatin, panel J, day 1) of 110 ± 7.17 µM·h and an AUC(0-t) ([4]; AUC0-6, 0 mg relebactam + 500 mg imipenem/cilastatin, panel K, day 1) of 126 ± 37.9 µM·h. It also gave an AUC(0-t) ([4]; AUC0-6, 50 mg relebactam + 500 mg imipenem/cilastatin, panel C, day 1) of 127 ± 24.8 µM·h, an AUC(0-t) ([4]; AUC0-6, 250 mg relebactam + 500 mg imipenem/cilastatin, panel F, day 1) of 110 ± 14.2 µM·h and an AUC(0-t) ([4]; AUC0-6, 500 mg relebactam + 500 mg imipenem/cilastatin, panel H, day 1) of 136 ± 22.5 µM·h. The AUC(0-t) ([4]; AUC0-6, 500 mg relebactam + 500 mg imipenem/cilastatin, panel J, day 1) was 106 ± 17.2 µM·h, the half-life ([4]; Terminal t1/2, 0 mg relebactam + 500 mg imipenem/cilastatin, panel I, day 1, N 1) was 0.962 h and the half-life ([4]; Terminal t1/2, 0 mg relebactam + 500 mg imipenem/cilastatin, panel J, day 1) was 0.862 ± 0.088 h. For the same compound, the half-life ([4]; Terminal t1/2, 0 mg relebactam + 500 mg imipenem/cilastatin, panel K, day 1) was 0.908 ± 0.182 h, the half-life ([4]; Terminal t1/2, 50 mg relebactam + 500 mg imipenem/cilastatin, panel C, day 1) was 1.01 ± 0.142 h and the half-life ([4]; Terminal t1/2, 250 mg relebactam + 500 mg imipenem/cilastatin, panel F, day 1) was 0.998 ± 0.087 h. For the same compound, the half-life ([4]; Terminal t1/2, 500 mg relebactam + 500 mg imipenem/cilastatin, panel H, day 1) was 1.01 ± 0.146 h and the half-life ([4]; Terminal t1/2, 500 mg relebactam + 500 mg imipenem/cilastatin, panel J, day 1) was 0.874 ± 0.117 h.
In the case of `C[C@@H](O)[C@H]1C(=O)N2C(C(=O)O)=C(SCCN=CN)C[C@H]12` [Imipenem], the AUC(0-inf) (clinical [1]; plasma, intravenous) is reported as 140 ± 16.7 µM·h, the clearance (clinical [1]; plasma, intravenous) is reported as 201 ± 21.4 mL/min and the concentration at 30 min (clinical [1]; plasma, intravenous) is reported as 102 ± 17 µM. For the same compound, the half-life (clinical [1]; plasma, intravenous) was 1.13 ± 0.075 h, the AUC(0-inf) (clinical [5]) was 132 ± 18.9 µM·h and the CL renal (clinical [6]; 500 mg) was 106 ± 20.3 mL/min. The CL renal (clinical [6]; 500 mg, CLR, mean (95% CI)) was 108 mL/min, the AUC(0-t) (clinical [7]) was 138 ± 15.3 µM·h and the clearance (clinical [7]) was 178 ± 16.1 mL/min. For the same compound, the CL renal [2, 15] was 98.6 to 108 mL/min, the CL renal [2, 16] was 67.6 to 80.9 mL/min and the half-life ([8]; intravenous, t1/2, observed, compared with relebactam) was 1.1 h.
With `O=C(NC1CCNCC1)[C@@H]1CC[C@@H]2CN1C(=O)N2OS(=O)(=O)O` [Relebactam] the tolerability ([9]; alone or in combination with imipenem-cilastatin, across the dose ranges studied) was “well tolerated”, the “participants reporting ≥1 drug-related AEs” value ([9]; single-dose cohort, part I, n = 16, with or without imipenem-cilastatin) was 50% and the CLR [10] was 144 ± 11.0 mL/min. For the same compound, the “net active secretion, share of total clearance” value [11] was “approximately 30%”, the free fraction [12] was 78% and the CL renal (clinical [6]; 25 mg, CLR) was 177 ± 29.4 mL/min. It also gave a CL renal (clinical [6]; 50 mg, CLR) of 166 ± 21.8 mL/min, a CL renal (clinical [6]; 125 mg, CLR) of 159 ± 19.6 mL/min and a CL renal (clinical [6]; 125 mg, CLR, mean (95% CI)) of 158 mL/min. It also gave a CL renal (clinical [6]; 250 mg, CLR) of 153 ± 16.5 mL/min, a CL renal (clinical [6]; 500 mg, CLR) of 129 ± 20.7 mL/min and a CL renal (clinical [6]; 1000 mg, CLR) of 127 ± 20.2 mL/min. It also gave a CL renal (clinical [6]; 1150 mg, CLR) of 137 ± 20.6 mL/min, a half-life (clinical [7]; geometric mean terminal t1/2, range) of 1.42 to 1.85 h and a CL renal at 7 days (clinical [13]) of 173 mL/min. For the same compound, the CL renal [2, 15] was 106 to 158 mL/min, the CL renal [2, 16] was 69.6 to 89.2 mL/min and the “increase in AUC0–∞” value ([14]; adult women vs adult men (historic data from study 1)) was 22%. For the same compound, the “increase in mean plasma exposure” value ([14]; elderly men vs adult men) was 41%, the “increase in mean plasma exposure” value ([14]; elderly women vs adult women) was 45% and the “increase in AUC0–∞” value ([14]; elderly women vs elderly men) was 25%. It also gave an AUC(0-inf) [8, 17] of 7.97 ± 1.67 µM·h, a concentration at 30 min [8, 17] of 4.42 ± 1.18 µM and a clearance [8, 17] of 155 ± 30.6 mL/min. The Vd [8, 17] was 18.3 ± 2.99 L, the half-life ([8]; intravenous, 25 mg, t1/2, relebactam 25 mg alone, single dose) was 1.39 ± 0.246 h and the AUC(0-inf) [8, 18] was 15.6 ± 2.73 µM·h. The concentration at 30 min [8, 18] was 9.04 ± 1.88 µM, the clearance [8, 18] was 157 ± 23.8 mL/min and the Vd [8, 18] was 20.5 ± 3.88 L. It also gave a concentration at 30 min [8, 19] of 45.4 ± 7.27 µM, a clearance [8, 19] of 148 ± 16.4 mL/min and a Vd [8, 19] of 20.8 ± 2.77 L. It also gave a half-life ([8]; intravenous, 250 mg, t1/2, relebactam 250 mg alone, single dose) of 1.63 ± 0.129 h, an AUC(0-inf) [8, 20] of 180 ± 25.7 µM·h and a concentration at 30 min [8, 20] of 101 ± 17.6 µM. For the same compound, the clearance [8, 20] was 135 ± 19.9 mL/min, the Vd [8, 20] was 19.1 ± 2.64 L and the half-life ([8]; intravenous, 500 mg, t1/2, relebactam 500 mg alone, single dose) was 1.64 ± 0.141 h. For the same compound, the AUC(0-inf) [8, 21] was 373 ± 51.9 µM·h, the concentration at 30 min [8, 21] was 209 ± 28.6 µM and the clearance [8, 21] was 130 ± 18.3 mL/min. The Vd [8, 21] was 20.6 ± 3.46 L, the half-life ([8]; intravenous, 1000 mg, t1/2, relebactam 1,000 mg alone, single dose) was 1.84 ± 0.281 h and the AUC(0-inf) [8, 22] was 396 ± 55.3 µM·h. It also gave a concentration at 30 min [8, 22] of 208 ± 18.3 µM, a clearance [8, 22] of 141 ± 18.8 mL/min and a Vd [8, 22] of 21.6 ± 2.69 L. The half-life ([8]; intravenous, 1150 mg, t1/2, relebactam 1,150 mg alone, single dose) was 1.78 ± 0.225 h, the half-life ([8]; intravenous, harmonic mean terminal half-life (t1/2), range, single dose, 25- to 1,150-mg dose range, healthy men) was 1.35 to 1.8 h and the half-life ([8]; iv, terminal half-life (t1/2), range, single- or multiple-dose i.v. administration over 30 min, independent of dose) was 1.35 to 1.85 h. The “AUC0–∞” value ([8]; relebactam 250 mg alone, single dose) was 81.8 ± 9.07 µM·h.
